One assay deals with N. gonorrhoeae CDC-0197. Nature of the assay: Liquid broth MIC in Fastidious broth. The following applies: Neisseria gonorrhoeae, CDC0197, read-out: Minimum Inhibitory Concentration, CDC-0197.
Another assay relates to N. gonorrhoeae FA1090. Nature of the assay: Liquid broth MIC in Fastidious broth. The following applies: Neisseria gonorrhoeae, FA1090, read-out: Minimum Inhibitory Concentration, FA 1090.
The next assay concerns P. aeruginosa ATCC 35151. Kind of assay: microbe, parasite or virus in culture. The format is cell-based. The settings on record: Pseudomonas aeruginosa, ATCC35151, read-out: Minimum inhibitory concentration, P. aeruginosa ATCC 35151.
In the next assay the test system is N. gonorrhoeae WHO K. Kind of assay: Liquid broth MIC in Fastidious broth. The settings on record: Neisseria gonorrhoeae, read-out: Minimum Inhibitory Concentration, WHO K.
Assay [1] concerns B. humptydooensis ATCC BAA-2767. Kind of assay: microbe, parasite or virus in culture. The class given is cell-based. The following applies: Burkholderia humptydooensis, ATCCBAA2767, read-out: Minimum inhibitory concentration (MIC), B. humptydooensis ATCC BAA-2767.
In the next assay the test system is N. gonorrhoeae WHO L. Kind of assay: Liquid broth MIC in Fastidious broth. The following applies: Neisseria gonorrhoeae, read-out: Minimum Inhibitory Concentration, WHO L.
The next assay relates to P. aeruginosa ATCC 27853. Kind of assay: microbe, parasite or virus in culture. The format is cell-based. The settings on record: Pseudomonas aeruginosa, ATCC27853, read-out: Minimum inhibitory concentration, P. aeruginosa ATCC 27853.
The test system of another assay is N. gonorrhoeae MS11. Kind of assay: Liquid broth MIC in Fastidious broth. The following applies: Neisseria gonorrhoeae, MS11, read-out: Minimum Inhibitory Concentration, MS11.
The next assay relates to P. aeruginosa CDC-0095. Nature of the assay: microbe, parasite or virus in culture. The class given is cell-based. The following applies: Pseudomonas aeruginosa, CDC0095, read-out: Minimum inhibitory concentration, P. aeruginosa CDC-0095.
The test system of another assay is A. baumannii CDC-0033. Nature of the assay: microbe, parasite or virus in culture. The format is cell-based. The settings on record: Acinetobacter baumannii, CDC0033, read-out: MIC, A. baumannii CDC-0033.
The next assay has as its system N. gonorrhoeae WHO G. Kind of assay: Liquid broth MIC in Fastidious broth. The settings on record: Neisseria gonorrhoeae, read-out: Minimum Inhibitory Concentration, WHO G.
The test system of another assay is N. gonorrhoeae WHO X. Kind of assay: Liquid broth MIC in Fastidious broth. The following applies: Neisseria gonorrhoeae, read-out: Minimum Inhibitory Concentration, WHO X.

In brackets after ≈: the same amount, converted by molar mass.

As for `O=C(NCCS(=O)(=O)N1CCN(C(=O)NC(C(=O)N[C@H]2Cc3ccc(F)c(C(=O)O)c3OB2O)c2cc(F)c(O)c(O)c2Cl)C1=O)c1ccncc1` (stereo partly drawn) [Example 288, (3R)-3-(2-(2-chloro-5-fluoro-3,4-dihydroxyphenyl)-2-(3-((2-(isonicotinamido)ethyl)sulfonyl)-2-oxoimidazolidine-1-carboxamido)acetamido)-7-fluoro-2-hydroxy-3,4-dihydro-2H-benzo[e][1,2]oxaborinine-8-carboxylic acid], the MIC was 16 to 32 µg/mL (≈ 20.9 to 41.7 µM) in the assay with N. gonorrhoeae CDC-0197; 1 to 2 µg/mL (≈ 1.3 to 2.61 µM) with N. gonorrhoeae FA1090; less than 1 µg/mL in the assay on P. aeruginosa ATCC 35151; 16 to 32 µg/mL (≈ 20.9 to 41.7 µM) with N. gonorrhoeae WHO K; 2 to 4 µg/mL (≈ 2.61 to 5.22 µM) in assay [1]; more than 64 µg/mL with N. gonorrhoeae WHO L. For the same compound, the MIC with P. aeruginosa ATCC 27853 is 2 to 4 µg/mL (≈ 2.61 to 5.22 µM); in the assay with N. gonorrhoeae MS11 it was 4 to 8 µg/mL (≈ 5.22 to 10.4 µM); in the assay on P. aeruginosa CDC-0095 it was 8 to 16 µg/mL (≈ 10.4 to 20.9 µM); in the assay with A. baumannii CDC-0033, 8 to 16 µg/mL (≈ 10.4 to 20.9 µM); in the assay on N. gonorrhoeae WHO G it was 4 to 8 µg/mL (≈ 5.22 to 10.4 µM); with N. gonorrhoeae WHO X, more than 64 µg/mL.
As to `O=C(NCCS(=O)(=O)N1CCN(C(=O)NC(C(=O)N[C@H]2Cc3ccc(F)c(C(=O)O)c3OB2O)c2cc(F)c(O)c(O)c2Cl)C1=O)Nc1ccc(O)cc1` (stereo partly drawn) [Example 289, (3R)-3-(2-(2-chloro-5-fluoro-3,4-dihydroxyphenyl)-2-(3-((2-(3-(4-hydroxyphenyl)ureido)ethyl)sulfonyl)-2-oxoimidazolidine-1-carboxamido)acetamido)-7-fluoro-2-hydroxy-3,4-dihydro-2H-benzo[e][1,2]oxaborinine-8-carboxylic acid], the MIC in the assay with N. gonorrhoeae CDC-0197 was 16 to 32 µg/mL (≈ 20.1 to 40.2 µM); with N. gonorrhoeae FA1090 it was 1 to 2 µg/mL (≈ 1.25 to 2.51 µM); with P. aeruginosa ATCC 35151 it was less than 1 µg/mL; in the assay with N. gonorrhoeae WHO K it was 16 to 32 µg/mL (≈ 20.1 to 40.2 µM); in assay [1] it was 2 to 4 µg/mL (≈ 2.51 to 5.02 µM); with N. gonorrhoeae WHO L, more than 64 µg/mL. The MIC with P. aeruginosa ATCC 27853 is 2 to 4 µg/mL (≈ 2.51 to 5.02 µM); with N. gonorrhoeae MS11 it was 4 to 8 µg/mL (≈ 5.02 to 10 µM); in the assay on P. aeruginosa CDC-0095, 2 to 4 µg/mL (≈ 2.51 to 5.02 µM); in the assay with A. baumannii CDC-0033, 2 to 4 µg/mL (≈ 2.51 to 5.02 µM); in the assay on N. gonorrhoeae WHO G, 4 to 8 µg/mL (≈ 5.02 to 10 µM); in the assay on N. gonorrhoeae WHO X, more than 64 µg/mL.
As to `O=C(NCCS(=O)(=O)N1CCN(C(=O)N[C@@H](C(=O)N[C@H]2Cc3ccc(F)c(C(=O)O)c3OB2O)c2cc(F)c(O)c(O)c2Cl)C1=O)Nc1ccncc1` [Example 290, (R)-3-((R)-2-(2-chloro-5-fluoro-3,4-dihydroxyphenyl)-2-(2-oxo-3-((2-(3-(pyridin-4-yl)ureido)ethyl)sulfonyl)imidazolidine-1-carboxamido)acetamido)-7-fluoro-2-hydroxy-3,4-dihydro-2H-benzo[e][1,2]oxaborinine-8-carboxylic acid], the MIC is 16 to 32 µg/mL (≈ 20.5 to 40.9 µM) with N. gonorrhoeae CDC-0197; 1 to 2 µg/mL (≈ 1.28 to 2.56 µM) in the assay on N. gonorrhoeae FA1090; less than 1 µg/mL with P. aeruginosa ATCC 35151; more than 64 µg/mL with N. gonorrhoeae WHO K; less than 1 µg/mL in [1]; more than 64 µg/mL in the assay with N. gonorrhoeae WHO L. Also, the MIC in the assay with P. aeruginosa ATCC 27853 was 2 to 4 µg/mL (≈ 2.56 to 5.12 µM); with N. gonorrhoeae MS11, 16 to 32 µg/mL (≈ 20.5 to 40.9 µM); in the assay with P. aeruginosa CDC-0095 it was 2 to 4 µg/mL (≈ 2.56 to 5.12 µM); in the assay on A. baumannii CDC-0033 it was 2 to 4 µg/mL (≈ 2.56 to 5.12 µM); in the assay on N. gonorrhoeae WHO G it was 16 to 32 µg/mL (≈ 20.5 to 40.9 µM); in the assay with N. gonorrhoeae WHO X it was more than 64 µg/mL.
In the case of `O=C(NCCCS(=O)(=O)N1CCN(C(=O)NC(C(=O)N[C@H]2Cc3ccc(F)c(C(=O)O)c3OB2O)c2cc(F)c(O)c(O)c2Cl)C1=O)Nc1ccncc1` (stereo partly drawn) [Example 291, (3R)-3-(2-(2-chloro-5-fluoro-3,4-dihydroxyphenyl)-2-(2-oxo-3-((3-(3-(pyridin-4-yl)ureido)propyl)sulfonyl)imidazolidine-1-carboxamido)acetamido)-7-fluoro-2-hydroxy-3,4-dihydro-2H-benzo[e][1,2]oxaborinine-8-carboxylic acid], the MIC with N. gonorrhoeae CDC-0197 is 16 to 32 µg/mL (≈ 20.1 to 40.2 µM); in the assay on N. gonorrhoeae FA1090, 4 to 8 µg/mL (≈ 5.03 to 10.1 µM); in the assay with P. aeruginosa ATCC 35151, less than 1 µg/mL; in the assay with N. gonorrhoeae WHO K, more than 64 µg/mL; in assay [1] it was less than 1 µg/mL; in the assay on N. gonorrhoeae WHO L, more than 64 µg/mL. Besides, the MIC with P. aeruginosa ATCC 27853 is 2 to 4 µg/mL (≈ 2.51 to 5.03 µM); with N. gonorrhoeae MS11, 16 to 32 µg/mL (≈ 20.1 to 40.2 µM); in the assay on P. aeruginosa CDC-0095, more than 128 µg/mL; in the assay on A. baumannii CDC-0033, 2 to 4 µg/mL (≈ 2.51 to 5.03 µM); in the assay on N. gonorrhoeae WHO G, 16 to 32 µg/mL (≈ 20.1 to 40.2 µM); in the assay with N. gonorrhoeae WHO X, more than 64 µg/mL.
With `O=C(O)c1c(F)ccc2c1OB(O)[C@@H](NC(=O)C(NC(=O)N1CCN(Cc3ccc(O)c(O)c3Cl)C(=O)C1=O)c1cc(F)c(O)c(O)c1Cl)C2` (stereo partly drawn) [Example 292, (3R)-3-(2-(4-(2-chloro-3,4-dihydroxybenzyl)-2,3-dioxopiperazine-1-carboxamido)-2-(2-chloro-5-fluoro-3,4-dihydroxyphenyl)acetamido)-7-fluoro-2-hydroxy-3,4-dihydro-2H-benzo[e][1,2]oxaborinine-8-carboxylic acid], the MIC in the assay with N. gonorrhoeae CDC-0197 was more than 64 µg/mL; in the assay on N. gonorrhoeae FA1090, 16 to 32 µg/mL (≈ 21.6 to 43.3 µM); in the assay on P. aeruginosa ATCC 35151, less than 1 µg/mL; in the assay on N. gonorrhoeae WHO K, more than 64 µg/mL; in assay [1], more than 128 µg/mL; in the assay with N. gonorrhoeae WHO L, more than 64 µg/mL. The MIC was less than 1 µg/mL in the assay on P. aeruginosa ATCC 27853; more than 64 µg/mL in the assay on N. gonorrhoeae MS11; more than 128 µg/mL in the assay on P. aeruginosa CDC-0095; more than 128 µg/mL in the assay with A. baumannii CDC-0033; more than 64 µg/mL with N. gonorrhoeae WHO G; more than 64 µg/mL in the assay with N. gonorrhoeae WHO X.
Regarding `O=C(O)c1c(F)ccc2c1OB(O)[C@@H](NC(=O)C(NC(=O)N1CCN(C3CCN(C(=O)c4cccc(O)c4)CC3)C(=O)C1=O)c1cc(F)c(O)c(O)c1Cl)C2` (stereo partly drawn) [Example 293, (3R)-3-(2-(2-chloro-5-fluoro-3,4-dihydroxyphenyl)-2-(4-(1-(3-hydroxybenzoyl)piperidin-4-yl)-2,3-dioxopiperazine-1-carboxamido)acetamido)-7-fluoro-2-hydroxy-3,4-dihydro-2H-benzo[e][1,2]oxaborinine-8-carboxylic acid], the MIC was more than 64 µg/mL with N. gonorrhoeae CDC-0197; 1 to 2 µg/mL (≈ 1.27 to 2.54 µM) with N. gonorrhoeae FA1090; less than 1 µg/mL in the assay on P. aeruginosa ATCC 35151; more than 64 µg/mL in the assay with N. gonorrhoeae WHO K; less than 1 µg/mL in [1]; more than 64 µg/mL with N. gonorrhoeae WHO L. Also, the MIC in the assay on P. aeruginosa ATCC 27853 is 2 to 4 µg/mL (≈ 2.54 to 5.09 µM); in the assay on N. gonorrhoeae MS11 it was 16 to 32 µg/mL (≈ 20.4 to 40.7 µM); with P. aeruginosa CDC-0095, 2 to 4 µg/mL (≈ 2.54 to 5.09 µM); in the assay on A. baumannii CDC-0033, 2 to 4 µg/mL (≈ 2.54 to 5.09 µM); in the assay with N. gonorrhoeae WHO G, 16 to 32 µg/mL (≈ 20.4 to 40.7 µM); in the assay with N. gonorrhoeae WHO X, more than 64 µg/mL.
For the compound `O=C(NCCCN1CCN(C(=O)N[C@@H](C(=O)N[C@H]2Cc3ccc(F)c(C(=O)O)c3OB2O)c2cc(F)c(O)c(O)c2Cl)C(=O)C1=O)c1ccncc1` [Example 294, (R)-3-((R)-2-(2-chloro-5-fluoro-3,4-dihydroxyphenyl)-2-(4-(3-(isonicotinamido)propyl)-2,3-dioxopiperazine-1-carboxamido)acetamido)-7-fluoro-2-hydroxy-3,4-dihydro-2H-benzo[e][1,2]oxaborinine-8-carboxylic acid], the MIC in the assay with N. gonorrhoeae CDC-0197 is more than 64 µg/mL; with N. gonorrhoeae FA1090, 1 to 2 µg/mL (≈ 1.34 to 2.69 µM); with P. aeruginosa ATCC 35151, less than 1 µg/mL; with N. gonorrhoeae WHO K, more than 64 µg/mL; in assay [1] it was less than 1 µg/mL; with N. gonorrhoeae WHO L, more than 64 µg/mL. In addition, the MIC was less than 1 µg/mL in the assay on P. aeruginosa ATCC 27853; 16 to 32 µg/mL (≈ 21.5 to 43 µM) in the assay on N. gonorrhoeae MS11; less than 1 µg/mL in the assay with P. aeruginosa CDC-0095; 2 to 4 µg/mL (≈ 2.69 to 5.37 µM) in the assay with A. baumannii CDC-0033; 16 to 32 µg/mL (≈ 21.5 to 43 µM) in the assay with N. gonorrhoeae WHO G; more than 64 µg/mL in the assay on N. gonorrhoeae WHO X.

The values are drawn from patent publication US20240270762A1, “PENICILLIN-BINDING PROTEIN INHIBITORS” (priority 2021, published 2024).
